Measurements taken from US12473299B2, “Cross-linked nucleoside and nucleotide using same” (Osaka University, priority 2020, dated 2025).
In the oligonucleotide strings, read from the 5' end, every base follows the letter of its sugar. An asterisk marks phosphorothioate; unmarked linkages are phosphodiester. Other units and linkages are bracketed, terminal groups are in braces. A string of capitals states the bases alone. [BANA] = BANA-modified thymidine; l = locked nucleic acid (LNA); [HNA] = hexitol nucleic acid; [5mC] = 5-methylcytosine; d = 2'-deoxy (DNA)

Key:
Assay type in all cases: binding
[1] = tested on: single-stranded oligo RNA 5′-r(AGCAAAAAACGC)-3′ (SEQ ID No. 18); assay: Double-strand forming ability (Tm) with single-stranded oligo RNA; conditions: for RNA Complement ΔTm: difference from the Tm of the sequence (18); for RNA Complement Tm: sequences (18) to (21), as in Example 9; for ssRNA ΔTm/mod.: Tm change per artificially modified nucleic acid base vs 5′-GCGTTTTTTGCT-3′; for ssRNA Tm: oligonucleotide 4 μM, 10 mM phosphate buffer pH 7.2, 100 mM NaCl, mean of three measurements
[2] = tested on: single-stranded oligo DNA 5′-d(AGCAAAAAACGC)-3′ (SEQ ID No. 19); assay: Double-strand forming ability (Tm) with single-stranded oligo DNA; conditions: for ssDNA ΔTm/mod.: Tm change per artificially modified nucleic acid base vs 5′-GCGTTTTTTGCT-3′; for ssDNA Tm: oligonucleotide 4 μM, 10 mM phosphate buffer pH 7.2, 100 mM NaCl, mean of three measurements
Procedure: (§1) The double-strand forming ability of the oligonucleotides was examined by subjecting the different types of oligonucleotides and the target strands to an annealing treatment to form double strands, and then measuring their Tm values. More specifically, a mixed liquid of each oligonucleotide (final concentration: 4 μM) and a phosphate buffer (10 mM, pH 7.2, 130 μL) containing sodium chloride (final concentration: 100 mM) was bathed in boiling water and then slowly cooled to room temperature. After that, the mixed liquid was cooled to 5° C. under nitrogen stream before starting the measurement. The temperature was raised to 90° C. at a rate of 0.5° C./min while absorbance at 260 nm was plotted at intervals of 0.5° C. The Tm value was calculated using a median method or differentiation (SEQ ID No. 17), and a mean value of three independent measurements was adopted.

[3] = tested on: single-stranded oligo RNA 5′-r([…])-3′ (SEQ ID No. 36); assay: Double-strand forming ability (Tm) of mMALAT1 antisense oligonucleotides with RNA; conditions: for RNA Complement Tm: as in Example 9; for RNA Complement ΔTm: difference from the Tm of the sequence (26)
Procedure: as §1
Furthermore, the double-strand forming ability for RNA, of each oligonucleotide was assessed in a manner similar to that of Example 9. Two sequences shown in Table 42 below were used as controls (also represented by SEQ ID Nos. 34 and 35, respectively).
A single-stranded oligo RNA 5′-r([…])-3′ (SEQ ID No. 36) was used as a target strand.

[4] = tested on: single-stranded oligo DNA 5′-d(AGCAAAYAACGC)-3′; assay: Base selectivity (Tm, match/mismatch) with single-stranded oligo DNA
Procedure: as §1
(§2) For the above sequences (1) to (5), the double-strand forming ability (binding affinity) was examined in a similar manner using a single-stranded oligo RNA 5′-r([…])-3′ and a single-stranded oligo DNA 5′-d([…])-3′ as target strands.
(§3) For the single-stranded oligo RNA, Y was one of rA (SEQ ID No. 18), rU (SEQ ID No. 20), rG (SEQ ID No. 21), and rC (SEQ ID No. 22). For the single-stranded oligo DNA, Y was one of dA (SEQ ID No. 19), dT (SEQ ID No. 23), dG (SEQ ID No. 24), and dC (SEQ ID No. 25).
(§4) In the table, ΔTm was calculated by subtracting the Tm value of the match (dA or rA) from the Tm value of the mismatch.

[5] = tested on: single-stranded oligo RNA 5′-r(AGCAAAYAACGC)-3′; assay: Base selectivity (Tm, match/mismatch) with single-stranded oligo RNA
Procedure: as §1, §2, §3, §4

[6] = sequences (1) to (5), label = unit at position 6, match

5′-d(GCGTTL33TGCT)-3′ (DNA GCGTTTTTTGCT; LNA-T and BANA-T3 modified nucleotides; modified_base (6)..(6) t = LNA-t; modified_base (7)..(8) t = BANA-t3) [(19), L=LNA-T, 3=Compound 25 (BANA-T3)]
RNA Complement ΔTm [1]: +1 °C
RNA Complement Tm [1]: 64 °C

5′-d(GCGTT1TTTGCT)-3′ (DNA GCGTTTTTTGCT; BANA-T1 modified nucleotide; modified_base (6)..(6) t = BANA-t1) [5′-GCGTT1TTTGCT-3′]
ssDNA ΔTm/mod. [2]: −10 °C
ssDNA Tm [2]: 41 °C
ssRNA ΔTm/mod. [1]: −4 °C
ssRNA Tm [1]: 44 °C

5′-d(GCG111111GCT)-3′ (DNA GCGTTTTTTGCT; BANA-T1 modified nucleotides; modified_base (4)..(9) ANA-t1) [5′-GCG111111GCT-3′]
ssDNA ΔTm/mod. [2]: −1.8 °C
ssDNA Tm [2]: 40 °C
ssRNA ΔTm/mod. [1]: +3.3 °C
ssRNA Tm [1]: 68 °C

5′-d(GCGTTLLLTGCT)-3′ (DNA GCGTTTTTTGCT; sugars from the 5' end d5 l3 d4, backbone not given here) [(18), L=LNA-T (LNA), reference compound]
RNA Complement Tm [1]: 63 °C

5′-d(5T^LA^g^t^t^c^a^c^t^g^a^a^T^^LG^5)-3′ (antisense CTAGTTCACTGAATGC; BANA and LNA modifications, phosphorothioate linkages; modified_base (1)..(1) c = SANA-mC3; modified_base (2)..(2) t = SANA-t3; modified_base (3)..(3) a = LNA-a; modified_base (4)..(16) phosphorothioated; modified_base (14)..(14) t = SANA-t3; modified_base (15)..(15) g = LNA-g; modified_base (16)..(16) c = SANA-mC3) [(23), antisense oligonucleotide against mMALAT1; 5: BANA-^mC3, T: BANA-T3]
RNA Complement Tm [3]: 61.0 °C
RNA Complement ΔTm [3]: −1.1 °C

5′-d(GCGTTHTTTGCT)-3′ (DNA GCGTTTTTTGCT; sugars from the 5' end d5 [HNA]1 d6, backbone not given here) [H=HNA-T, reference compound]
ssDNA ΔTm/mod. [2]: −4 °C
ssDNA Tm [2]: 47 °C
ssRNA ΔTm/mod. [1]: +1 °C
ssRNA Tm [1]: 49 °C

5′-d(5^T^^LA^g^t^t^c^a^c^t^g^a^a^T^LG^5)-3′ (antisense CTAGTTCACTGAATGC; BANA and LNA modifications, phosphorothioate linkages; modified_base (1)..(1) c = SANA-mC3; modified_base (2)..(2) t = SANA-t3; modified_base (2)..(13) phosphorothioated; modified_base (3)..(3) a = LNA-a; modified_base (14)..(14) t = SANA-t3; modified_base (15)..(15) g = LNA-g; modified_base (16)..(16) c = SANA-mC3) [(24), antisense oligonucleotide against mMALAT1; 5: BANA-^mC3, T: BANA-T3]
RNA Complement Tm [3]: 61.7 °C
RNA Complement ΔTm [3]: −0.4 °C

5′-d(GCGTT3L3TGCT)-3′ (DNA GCGTTTTTTGCT; LNA-T and BANA-T3 modified nucleotides; modified_base (6)..(6) t = BANA-t3; modified_base (7)..(7) t = LNA-t; modified_base (8)..(8) t = BANA-t3) [(20), L=LNA-T, 3=Compound 25 (BANA-T3)]
RNA Complement ΔTm [1]: −3 °C
RNA Complement Tm [1]: 60 °C

5′-d(GCG222222GCT)-3′ (DNA GCGTTTTTTGCT; BANA-T2 modified nucleotides; modified_base (4)..(9) t = BANA-t2) [5′-GCG222222GCT-3′, 2=Compound 19 (BANA-T2)]
ssDNA ΔTm/mod. [2]: −0.7 °C
ssDNA Tm [2]: 47 °C
ssRNA ΔTm/mod. [1]: +4.5 °C
ssRNA Tm [1]: 75 °C

5′-d(^LC^^LT^^LA^g^t^t^c^a^c^t^g^a^a^^LT^^LG^^LC)-3′ (antisense CTAGTTCACTGAATGC; sugars from the 5' end l3 d10 l3, all phosphorothioate, methylation of C not given here) [(26), control, LNA gapmer with PS, reference compound]
RNA Complement Tm [3]: 62.1 °C

5′-d(5^T^^LA^g^t^t^c^a^c^t^g^a^a^T^^LG^5)-3′ (antisense CTAGTTCACTGAATGC; sugars from the 5' end [BANA][BANA]ldddddddddd[BANA]l[BANA], [5mC] at 1, 16, all phosphorothioate, methylation of C not given here) [(22), antisense oligonucleotide against mMALAT1; 5: BANA-^mC3, T: BANA-T3, {circumflex}: PS]
RNA Complement Tm [3]: 60.3 °C
RNA Complement ΔTm [3]: −1.8 °C

COc1ccc(C(OC[C@H]2OC3CCOC([C@@H]3n3cc(C)c(=O)[nH]c3=O)[C@H]2OP(OCCC#N)N(C(C)C)C(C)C)(c2ccccc2)c2ccc(OC)cc2)cc1 (stereo partly drawn) [compound 19]
ssDNA: Tm, Y = dA [4, 6]: 42 °C
ssDNA: Tm, Y = dT ([4]; sequences (1) to (5), label = unit at position 6, mismatch dT): 38 °C
ssDNA: Tm, Y = dC ([4]; sequences (1) to (5), mismatch dC): 32 °C
ssDNA: Tm, Y = dG ([4]; sequences (1) to (5), mismatch dG): 31 °C
ssDNA: ΔTm, Y = dC ([4]; ΔTm = Tm(mismatch) − Tm(match), mismatch dC): −10 °C
ssDNA: ΔTm, Y = dG ([4]; ΔTm = Tm(mismatch) − Tm(match), mismatch dG): −11 °C
ssDNA: ΔTm, Y = dT ([4]; ΔTm = Tm(mismatch) − Tm(match), mismatch dT): −4 °C
base pairing with G ([5]; introduced into the oligonucleotides, compared with native DNA (dT) (SEQ ID No. 1)): suppressed base pairing with G
ssRNA: Tm, Y = rA [5, 6]: 48 °C
ssRNA: Tm, Y = rC ([5]; sequences (1) to (5), mismatch rC): 34 °C
ssRNA: Tm, Y = rG ([5]; sequences (1) to (5), mismatch rG): 39 °C
ssRNA: Tm, Y = rU ([5]; sequences (1) to (5), mismatch rU): 40 °C
ssRNA: ΔTm, Y = rC ([5]; ΔTm = Tm(mismatch) − Tm(match), mismatch rC): −14 °C
ssRNA: ΔTm, Y = rG ([5]; ΔTm = Tm(mismatch) − Tm(match), mismatch rG): −9 °C
ssRNA: ΔTm, Y = rU ([5]; ΔTm = Tm(mismatch) − Tm(match), mismatch rU): −8 °C

5′-d(GCGTT33LTGCT)-3′ (DNA GCGTTTTTTGCT; LNA-T and BANA-T3 modified nucleotides; modified_base (6)..(7) t = BANA-t3; modified_base (8)..(8) t =LNA-t) [(21), L=LNA-T, 3=Compound 25 (BANA-T3)]
RNA Complement ΔTm [1]: −2 °C
RNA Complement Tm [1]: 61 °C

5′-d(5T^LA^g^t^t^c^a^c^t^g^a^a^T^LG^5)-3′ (antisense CTAGTTCACTGAATGC; BANA and LNA modifications, phosphorothioate linkages; modified_base (1)..(1) c = BANA-mC3; modified_base (2)..(2) t = BANA-t3; modified_base (3)..(3) a = LNA-a; modified_base (3)..(13) phosphorothioated; modified_base (14)..(14) t = BANA-t3; modified_base (15)..(15) g = LNA-g; modified_base (16)..(16) c = BANA-mC3) [(25), antisense oligonucleotide against mMALAT1; 5: BANA-^mC3, T: BANA-T3]
RNA Complement Tm [3]: 63.4 °C
RNA Complement ΔTm [3]: +1.3 °C

5′-d(c^t^a^g^t^t^c^a^c^t^g^a^a^t^g^c)-3′ (antisense dC*dT*dA*dG*dT*dT*dC*dA*dC*dT*dG*dA*dA*dT*dG*dC) [(27), control, PS DNA, reference compound]
RNA Complement Tm [3]: 44.2 °C
RNA Complement ΔTm [3]: −17.9 °C

5′-d(GCGTTTTTTGCT)-3′ (DNA, backbone and methylation of C not given here) [native DNA (dT), reference compound]
ssDNA Tm [2]: 51 °C
ssRNA Tm [1]: 48 °C
